# Test results as given in patent publication US9695151B2, “3,4-dihydro-2H-isoquinoline-1-one and 2,3-dihydro-isoindol-1-one compounds” (Hoffmann-La Roche Inc., priority 2013, dated 2017).
# Assays:
# human CYP11B1 = human CYP11B1 (Homo sapiens (Human), UniProt P15538); experiment: G-402 cellular enzyme assay, human CYP11B1 (cortisol release); format: cell-based; settings: G-402 cells, 1 μM Deoxycortisol
# Excerpt: (§1) Herein we identified the use of the G-402 cell line as a host cell to ectopically express (transiently or stably) enzymes of the CYP11 family. Specifically we developed stable G-402 cells expressing ectopically human CYP11B1, human CYP11B2, human CYP11A1, cynmolgus CYP11B1 or cynomolgus CYP11B2 enzyme activity. Importantly the identified cell line G-402 expresses co-factors (adrenodoxin and adrenodoxin reductase) important for the activity of the CYP11 family and no relevant enzyme activity of the CYP11 family (in comparison to H295R cells) was detected in these cells. Therefore the G-402 cell line is uniquely suited as a host cell for the ectopic expression of enzymes from the CYP11 family.
# (§2) G-402 cells can be obtained from ATCC (CRL-1440) and were originally derived from a renal leiomyoblastoma.
# (§3) The expression plasmids contains the ORF for either human/cyno CYP11B1 or CYP11B2 under the control of a suitable promoter (CMV-promoter) and a suitable resistance marker (neomycin). Using standard techniques the expression plasmid is transfected into G-402 cells and these cells are then selected for expressing the given resistance markers. Individual cell-clones are then selected and assessed for displaying the desired enzymatic activity using 11-Deoxycorticosterone (Cyp11B2) or 11-Deoxycortisol (Cyp11B1) as a substrate.
# (§4) G-402 cells expressing CYP11 constructs were established as described above and maintained in McCoy's 5a Medium Modified, ATCC Catalog No. 30-2007 containing 10% FCS and 400 μg/ml G418 (Geneticin) at 37° C. under an atmosphere of 5% CO2/95% air. Cellular enzyme assays were performed in DMEM/F12 medium containing 2.5% charcoal treated FCS and appropriate concentration of substrate (0.3-10 uM 11-Deoxycorticosterone, 11-Deoxycortisol or Corticosterone). For assaying enzymatic activity, cells were plated onto 96 well plates and incubated for 16 h. An aliquot of the supernatant is then transferred and analyzed for the concentration of the expected product (Aldosterone for CYP11B2; Cortisol for CYP11B1). The concentrations of these steroids can be determined using HTRF assays from CisBio analyzing either Aldosterone or Cortisol.
# (§5) Inhibition of the release of produced steroids can be used as a measure of the respective enzyme inhibition by test compounds added during the cellular enzyme assay. The dose dependent inhibition of enzymatic activity by a compound is calculated by means of plotting added inhibitor concentrations (x-axes) vs. measured steroid/product level (y-axes). The inhibition is then calculated by fitting the following 4-parameter sigmoidal function (Morgan-Mercer-Flodin (MMF) model) to the raw data points using the least squares method:
# (§6) [formula] wherein, A is the maximum y value, B is the EC50 factor determined using XLFit, C is the minimum y value and D is the slope value.
# (§7) EC50 values for compounds claimed herein were tested with the G402-based assay system described. Cyp11B2 enzyme activity was tested in presence of 1 μM Deoxycorticosterone and variable amounts of inhibitors; Cyp11B1 enzyme activity was tested in presence of 1 μM Deoxycortisol and variable amounts of inhibitors.
# CYP11B2 = CYP11B2 (Homo sapiens (Human), UniProt P19099); experiment: G-402 cellular enzyme assay, human CYP11B2 (aldosterone release); format: cell-based; settings: G-402 cells, 1 μM Deoxycorticosterone
# Excerpt: as §1, §2, §3, §4, §5, §6, §7
# Sequence of CYP11B2 (P19099 25-503): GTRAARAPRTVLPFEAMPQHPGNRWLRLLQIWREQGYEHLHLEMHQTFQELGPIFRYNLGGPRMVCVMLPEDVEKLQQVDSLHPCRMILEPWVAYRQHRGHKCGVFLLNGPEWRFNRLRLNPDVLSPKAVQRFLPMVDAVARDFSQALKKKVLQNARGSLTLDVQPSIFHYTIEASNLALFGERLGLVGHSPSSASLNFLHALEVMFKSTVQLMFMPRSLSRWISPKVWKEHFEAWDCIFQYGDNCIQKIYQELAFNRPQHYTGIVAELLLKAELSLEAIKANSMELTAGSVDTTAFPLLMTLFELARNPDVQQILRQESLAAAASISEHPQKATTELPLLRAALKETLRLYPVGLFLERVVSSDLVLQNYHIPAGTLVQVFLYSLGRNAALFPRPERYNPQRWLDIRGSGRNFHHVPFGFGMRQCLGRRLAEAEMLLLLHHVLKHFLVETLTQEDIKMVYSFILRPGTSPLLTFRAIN
# Sequence of human CYP11B1 (P15538 25-503): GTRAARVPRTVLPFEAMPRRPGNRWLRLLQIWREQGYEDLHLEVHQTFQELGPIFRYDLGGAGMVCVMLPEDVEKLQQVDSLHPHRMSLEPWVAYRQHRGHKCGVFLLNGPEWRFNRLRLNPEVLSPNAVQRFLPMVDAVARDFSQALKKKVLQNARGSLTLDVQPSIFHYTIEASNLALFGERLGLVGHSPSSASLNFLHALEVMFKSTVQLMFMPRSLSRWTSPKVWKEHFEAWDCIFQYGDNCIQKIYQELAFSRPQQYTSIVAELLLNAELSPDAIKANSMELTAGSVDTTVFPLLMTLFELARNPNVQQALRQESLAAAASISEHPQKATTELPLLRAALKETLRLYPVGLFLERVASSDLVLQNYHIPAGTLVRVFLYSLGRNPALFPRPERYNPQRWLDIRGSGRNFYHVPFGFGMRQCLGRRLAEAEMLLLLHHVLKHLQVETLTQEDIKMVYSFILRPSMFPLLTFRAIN
Compound,EC50 (human CYP11B1),EC50 (CYP11B2)
"CCS(=O)(=O)N1CC(Nc2cncc(N3C(=O)c4ccc(Cl)cc4[C@@H]3C)c2)C1 (single isomer, unassigned) [Example 42, (3S or 3R)-5-Chloro-2-[5-[(1-ethylsulfonylazetidin-3-yl)amino]-3-pyridyl]-3-methyl-isoindolin-1-one]",1070 nM,12 nM
"CCCS(=O)(=O)N1CC(N(C)c2cncc(N3C(=O)c4ccc(Cl)cc4C3(C)C)c2)C1 [Example 14, 5-Chloro-3,3-dimethyl-2-[5-[methyl-(1-propylsulfonylazetidin-3-yl)amino]pyridin-3-yl]isoindol-1-one]",25 nM,0.6 nM
"CN(c1cncc(N2C(=O)c3ccc(Cl)cc3C2(C)C)c1)C1CN(S(C)(=O)=O)C1 [Example 11, 5-Chloro-3,3-dimethyl-2-[5-[methyl-(1-methylsulfonylazetidin-3-yl)amino]pyridin-3-yl]isoindol-1-one]",50 nM,3 nM
"CC1(C)c2cc(Cl)ccc2C(=O)N1c1cncc(NC2CCCN(S(C)(=O)=O)C2)c1 (single isomer, unassigned) [Example 23, 5-Chloro-3,3-dimethyl-2-[5-[[(3S or 3R)-1-methylsulfonylpiperidin-3-yl]amino]pyridin-3-yl]isoindol-1-one]",18200 nM,1200 nM
"CCS(=O)(=O)N1CCC(Nc2cncc(N3C(=O)c4ccc(Cl)cc4C3(C)C)c2)CC1 [Example 6, 5-Chloro-2-[5-[(1-ethylsulfonylpiperidin-4-yl)amino]pyridin-3-yl]-3,3-dimethylisoindol-1-one]",1540 nM,4 nM
"CN(c1cncc(N2C(=O)c3ccc(Cl)cc3C2(C)C)c1)C1CCN(S(C)(=O)=O)CC1 [Example 21, 5-Chloro-3,3-dimethyl-2-[5-[methyl-(1-methylsulfonylpiperidin-4-yl)amino]pyridin-3-yl]isoindol-1-one]",3 nM,3 nM
"CCS(=O)(=O)N1CC(Nc2cncc(N3C(=O)c4ccc(Cl)cc4C3C)c2)C1 (stereo not shown) [Example 34, 5-Chloro-2-[5-[(1-ethylsulfonylazetidin-3-yl)amino]pyridin-3-yl]-3-methyl-3H-isoindol-1-one]",4530 nM,70 nM
"CCS(=O)(=O)N1CC(Nc2cncc(N3C(=O)c4ccc(Cl)cc4[C@H]3C)c2)C1 (single isomer, unassigned) [Example 41, (3R or 3S)-5-Chloro-2-[5-[(1-ethylsulfonylazetidin-3-yl)amino]-3-pyridyl]-3-methyl-isoindolin-1-one]",10900 nM,39 nM
"CCS(=O)(=O)N1CC2(CC(Nc3cncc(N4C(=O)c5ccc(Cl)cc5C4(C)C)c3)C2)C1 [Example 37, 5-Chloro-2-[5-[(2-ethylsulfonyl-2-azaspiro[3.3]heptan-6-yl)amino]pyridin-3-yl]-3,3-dimethylisoindol-1-one]",7370 nM,10 nM
"CCC(=O)N1CCC(N(C)c2cncc(N3C(=O)c4ccc(Cl)cc4C3(C)C)c2)CC1 [Example 19, 5-Chloro-3,3-dimethyl-2-[5-[methyl-(1-propanoylpiperidin-4-yl)amino]pyridin-3-yl]isoindol-1-one]",2 nM,0.7 nM
"CC1(C)c2cc(Cl)ccc2C(=O)N1c1cncc(NC2CCCN(S(C)(=O)=O)C2)c1 (single isomer, unassigned) [Example 22, 5-Chloro-3,3-dimethyl-2-[5-[[(3R or 3S)-1-methylsulfonylpiperidin-3-yl]amino]pyridin-3-yl]isoindol-1-one]",27200 nM,149 nM
"CC(=O)N1CC(N(C)c2cncc(N3C(=O)c4ccc(Cl)cc4C3(C)C)c2)C1 [Example 2, 2-[5-[(1-Acetylazetidin-3-yl)-methylamino]pyridin-3-yl]-5-chloro-3,3-dimethylisoindol-1-one]",552 nM,12 nM
"CC(C)S(=O)(=O)N1CCC(N(C)c2cncc(N3C(=O)c4ccc(Cl)cc4C3(C)C)c2)C1 (single isomer, unassigned) [Example 16, 5-Chloro-3,3-dimethyl-2-[5-[methyl-[(3R or 3S)-1-propan-2-ylsulfonylpyrrolidin-3-yl]amino]pyridin-3-yl]isoindol-1-one]",117 nM,0.5 nM
"CC(C)S(=O)(=O)N1CC(Nc2cncc(N3CCc4cc(Cl)ccc4C3=O)c2)C1 [Example 31, 6-Chloro-2-[5-[(1-propan-2-ylsulfonylazetidin-3-yl)amino]pyridin-3-yl]-3,4-dihydroisoquinolin-1-one]",3840 nM,34 nM

# The remaining lines, values ahead:
EC50 (human CYP11B1),EC50 (CYP11B2),Compound
10800 nM,92 nM,"CCC(=O)N1CC(Nc2cncc(N3C(=O)c4ccc(Cl)cc4[C@H]3C)c2)C1 (single isomer, unassigned) [Example 39, (3R or 3S)-5-Chloro-3-methyl-2-[5-[(1-propanoylazetidin-3-yl)amino]-3-pyridyl]isoindolin-1-one]"
5840 nM,38 nM,"CC(=O)N1CC(Nc2cncc(N3C(=O)c4ccc(Cl)cc4C3(C)C)c2)C1 [Example 1, 2-[5-[(1-Acetylazetidin-3-yl)amino]pyridin-3-yl]-5-chloro-3,3-dimethylisoindol-1-one]"
38000 nM,352 nM,"CCS(=O)(=O)N1CCCC(Nc2cncc(N3C(=O)c4ccc(Cl)cc4C3(C)C)c2)C1 (single isomer, unassigned) [Example 24, 5-Chloro-2-[5-[[(3R or 3S)-1-ethylsulfonylpiperidin-3-yl]amino]pyridin-3-yl]-3,3-dimethylisoindol-1-one]"
4180 nM,154 nM,"CCC(=O)N1CC(Nc2cncc(N3C(=O)c4ccc(Cl)cc4[C@@H]3C)c2)C1 (single isomer, unassigned) [Example 40, (3S or 3R)-5-Chloro-3-methyl-2-[5-[(1-propanoylazetidin-3-yl)amino]-3-pyridyl]isoindolin-1-one]"
5930 nM,122 nM,"CCC(=O)N1CC(Nc2cncc(N3C(=O)c4ccc(C#N)cc4C3(C)C)c2)C1 [Example 45, 3,3-Dimethyl-1-oxo-2-[5-[(1-propanoylazetidin-3-yl)amino]-3-pyridyl]isoindoline-5-carbonitrile]"
86 nM,2 nM,"CCC(=O)N1CC(N(C)c2cncc(N3C(=O)c4ccc(Cl)cc4C3(C)C)c2)C1 [Example 12, 5-Chloro-3,3-dimethyl-2-[5-[methyl-(1-propanoylazetidin-3-yl)amino]pyridin-3-yl]isoindol-1-one]"
13900 nM,443 nM,"CCS(=O)(=O)N1CCCC(Nc2cncc(N3C(=O)c4ccc(Cl)cc4C3(C)C)c2)C1 (single isomer, unassigned) [Example 25, 5-Chloro-2-[5-[[(3S or 3R)-1-ethylsulfonylpiperidin-3-yl]amino]pyridin-3-yl]-3,3-dimethylisoindol-1-one]"
1640 nM,8 nM,"CCS(=O)(=O)N1CC(Nc2cncc(N3C(=O)c4ccc(Cl)cc4C3(C)C)c2)C1 [Example 7, 5-Chloro-2-[5-[(1-ethylsulfonylazetidin-3-yl)amino]pyridin-3-yl]-3,3-dimethylisoindol-1-one]"
6850 nM,449 nM,"CC(=O)N1CC2(CC(Nc3cncc(N4C(=O)c5ccc(Cl)cc5C4(C)C)c3)C2)C1 [Example 35, 2-[5-[(2-Acetyl-2-azaspiro[3.3]heptan-6-yl)amino]pyridin-3-yl]-5-chloro-3,3-dimethylisoindol-1-one]"
6990 nM,22 nM,"CCC(=O)N1CCC(Nc2cncc(N3C(=O)c4ccc(C#N)cc4C3(C)C)c2)CC1 [Example 44, 3,3-Dimethyl-1-oxo-2-[5-[(1-propanoyl-4-piperidyl)amino]-3-pyridyl]isoindoline-5-carbonitrile]"
23700 nM,178 nM,"CCC(=O)N1CC(Nc2cncc(N3CCc4cc(Cl)ccc4C3=O)c2)C1 [Example 29, 6-Chloro-2-[5-[(1-propanoylazetidin-3-yl)amino]pyridin-3-yl]-3,4-dihydroisoquinolin-1-one]"
2450 nM,31 nM,"CC(=O)N1CCC(Nc2cncc(N3C(=O)c4ccc(Cl)cc4C3(C)C)c2)CC1 [Example 5, 2-[5-[(1-Acetylpiperidin-4-yl)amino]pyridin-3-yl]-5-chloro-3,3-dimethylisoindol-1-one]"
